The values below come from patent US20260167641A1, “CRYSTAL FORM OF IMIDAZOPYRAZINE DERIVATIVE, PREPARATION METHOD THEREFOR AND USE THEREOF” (TRANSTHERA SCIENCES (NANJING), INC., priority 2022, published 2026).

By Solubility is commonly meant the dissolved amount per volume that the medium holds. The low end stands for little dissolved substance, the high end for much dissolved substance. A word on the Cmax: it is the maximum level reached in the sampled fluid or tissue. Broadly, the Tmax is the time from dosing to the highest level.

A short description of series [1]: Solubility test in pH 4.5 acetate buffer solution. The series is classed as physicochemical. The note with it: for Solubility: saturated solution, 37° C., 200 rpm, 24 h. The method, then: Appropriate amounts of crystal forms I, II, III, and the compound of formula (I) were weighed and placed into 15 mL centrifuge tubes separately. A pH 4.5 acetate buffer was added to each tube to prepare saturated solutions. The tubes were sealed and placed in a water bath thermostatic oscillator to shake at 37° C. and a rotation speed of 200 rpm for 24 h. After centrifugation, the supernatants were collected and diluted to the corresponding multiples. The concentrations were measured. The detection was conducted according to the 2020 edition of the Chinese Pharmacopoeia.

Series [2] can be described thus: Pharmacokinetic evaluation test in rats. The series is classed as in vivo, SD rats. As to conditions: p.o. 100 mg/kg; for Pharmacokinetic properties: SD rats; for AUCinf—obs / AUClast / Cmax / tz1/2 (terminal half-life) / Tmax: male SD rats, 100 mg/kg; for AUCinf—obs / AUClast / Cmax / tz1/2 (terminal half-life): mean, n = 3; for Tmax: n = 3, Tmax in median. The method, then: • Animals: male SD rats • Animal administration and sample collection: Crystal forms I, II, and III were each dissolved in a mixture of 20% PEG400+80% (20% Captisol in 0.5% MC) to prepare administration formulation suspensions. The administration formulations were intragastrically administered to the SD rats at a dose of 100 mg/kg. Blood samples were collected at time points of 15 min, 30 min, 1 h, 2 h, 4 h, 6 h, 8 h, 24 h, 48 h, 72 h, and […] after administration.
One day before administration, the animals underwent jugular vein catheterization. After administration, about 300 μL of blood samples were collected via the jugular vein and then placed into anticoagulation tubes containing EDTA-K2. The blood samples were centrifuged at 4° C. and 8000 rpm for 10 min to yield plasma samples, which were prepared within 30 min after blood sample collection. The plasma samples were stored in a refrigerator at −80° C. before tests.
The samples to be tested were taken out from the refrigerator at −80° C., naturally thawed at room temperature, and then vortexed for 5 min. 20 μL of each of the 20-fold diluted plasma samples was precisely pipetted into a 1.5 mL centrifuge tube, and 300 μL of an internal standard working solution at a concentration of 10 ng/mL was added. The mixture was uniformly mixed, vortexed for 5 min, and then centrifuged at 12000 rpm for 5 mun.
50 μL of the supernatant was precisely pipetted into a 96-well plate to which water was added at 150 μL/well in advance, uniformly mixed by vortexing for 5 min, and analyzed by LC-MS/MS.
The sample to be tested was taken out from the refrigerator at −80° C., naturally thawed at room temperature, and then vortexed for 5 min. 2 μL of the plasma sample was precisely pipetted and then added, together with 28 μL of blank plasma, to a 1.5 mL centrifuge tube, and 450 μL of an internal standard working solution (a solution of tolbutamide in acetonitrile) at a concentration of 100 ng/mL was added. The mixture was uniformly mixed, vortexed for 5 min, and then centrifuged at 12000 rpm for 5 min. 50 μL of the supernatant was precisely pipetted into a 96-well plate to which water was added at 150 μL/well in advance, uniformly mixed by vortexing for 5 min, and analyzed by LC-MS/MS.
The test compound concentrations were output by Analyst 1.7.1 of AB Sciex. Parameters such as mean, standard deviation, and coefficient of variation were calculated by Microsoft Excel. PK parameters were calculated by Pharsight Phoenix 8.2 software NCA (Tmax was in median).

The nature of series [3]: Stability evaluation under influencing factors. The series is classed as physicochemical. As to conditions: for Purity decrease: 30 days vs day 0. The method, then: Appropriate amounts of crystal forms I, II. III, and the compound of formula (I) were taken and exposed to conditions of 60° C., RH (relative humidity) 92.5%, RH (relative humidity) 75%, and light, respectively. The samples were collected on day 30, and the purity of the samples and changes in XRPD were examined according to the 2020 edition of the Chinese Pharmacopoeia.

≈ marks a conversion by molar mass, not a printed value.

For the compound `Nc1nccn2c(C34CCC(NC(=O)CN5CCOCC5)(CC3)C4)nc(-c3ccc(C(=O)Nc4cc(C(F)(F)F)ccn4)cc3)c12` (single isomer, unassigned) [Crystal form I, 4-(8-amino-3-(4-(2-morpholinoacetamido)bicyclo[2.2.1]heptan-1-yl)imidazo[1,5-a]pyrazin-1-yl)-N-(4-(trifluoromethyl)pyridin-2-yl)benzamide], in series [1], the “Solubility compared to the amorphous form” value was “higher solubility” and the Solubility was 273 µg/mL (≈ 430 µM). Also, in series [2], the Pharmacokinetic properties entry was “very good pharmacokinetic properties”, the “AUCinf—obs” value came to 1218.508 µg·h/mL, the AUClast came to 1208.628 µg·h/mL and the Cmax came to 96.267 µg/mL. Moreover, in series [2], the “tz1/2 (terminal half-life)” value is recorded as 10.4 h and the Tmax is recorded as 1.00 h. The compound further showed a Purity % in series [3] (0 day) of 98.6%. For the same compound, in series [3] (60° C., 30 days), the “Crystal form identification (XRPD)” value is listed as “Consistent with day 0” and the Purity % worked out at 98.7%. Moreover, in series [3] (Light exposure, 30 days), the “Crystal form identification (XRPD)” value was “Consistent with day 0” and the Purity % was 98.1%. In series [3] (RH 75%, 30 days), the “Crystal form identification (XRPD)” value is on record as “Consistent with day 0” and the Purity % was found to be 98.7%. Besides, in series [3] (RH 92.5%, 30 days), the “Crystal form identification (XRPD)” value is reported as “Consistent with day 0” and the Purity % is 98.7%. The “Change of crystal form (XRPD pattern)” value in series [3] (all influencing factor conditions, 30 days) is recorded as “no changes in the crystal forms occurred”. In series [3] (influencing factors, 30 days), the “Stability compared to the amorphous form” value is “higher stability”. The compound further returned a Purity decrease in series [3] (light exposure) of 0.5%.
With `Nc1nccn2c(C34CCC(NC(=O)CN5CCOCC5)(CC3)C4)nc(-c3ccc(C(=O)Nc4cc(C(F)(F)F)ccn4)cc3)c12` [Compound of formula (I), 4-(8-amino-3-(4-(2-morpholinoacetamido)bicyclo[2.2.1]heptan-1-yl)imidazo[1,5-a]pyrazin-1-yl)-N-(4-(trifluoromethyl)pyridin-2-yl)benzamide], in series [1], the Solubility was 65 µg/mL. Further, the Purity % in series [3] (0 day) is reported as 99.7%; in series [3] (60° C., 30 days), 99.5%; in series [3] (Light exposure, 30 days), 88.2%; in series [3] (RH 75%, 30 days), 99.7%; in series [3] (RH 92.5%, 30 days) it was 99.7%. For the same compound, the “Crystal form identification (XRPD)” value in series [3] (60° C., 30 days) is on record as “Consistent with day 0”; in series [3] (Light exposure, 30 days), “Consistent with day 0”; in series [3] (RH 75%, 30 days), “Consistent with day 0”; in series [3] (RH 92.5%, 30 days), “Consistent with day 0”. In series [3] (light exposure), this compound yielded a Purity decrease of 11.5%.
In the case of `Nc1nccn2c(C34CCC(NC(=O)CN5CCOCC5)(CC3)C4)nc(-c3ccc(C(=O)Nc4cc(C(F)(F)F)ccn4)cc3)c12` (single isomer, unassigned) [Crystal form III, 4-(8-amino-3-(4-(2-morpholinoacetamido)bicyclo[2.2.1]heptan-1-yl)imidazo[1,5-a]pyrazin-1-yl)-N-(4-(trifluoromethyl)pyridin-2-yl)benzamide], in series [1], the “Solubility compared to the amorphous form” value is recorded as “higher solubility” and the Solubility stood at 98 µg/mL (≈ 154 µM). In series [2], the Pharmacokinetic properties entry is reported as “very good pharmacokinetic properties”, the “AUCinf—obs” value was 2488.128 µg·h/mL, the AUClast is 2482.493 µg·h/mL and the Cmax was determined as 142.333 µg/mL. For the same compound, in series [2], the “tz1/2 (terminal half-life)” value worked out at 9.39 h and the Tmax was found to be 2.00 h. Besides, the Purity % in series [3] (0 day) is listed as 99.0%. Also, in series [3] (60° C., 30 days), the “Crystal form identification (XRPD)” value is “Consistent with day 0” and the Purity % amounted to 94.8%. In addition, in series [3] (Light exposure, 30 days), the “Crystal form identification (XRPD)” value is given as “Consistent with day 0” and the Purity % is on record as 88.0%. Also, in series [3] (RH 75%, 30 days), the “Crystal form identification (XRPD)” value is given as “Partially converted to amorphous” and the Purity % came to 98.7%. In series [3] (RH 92.5%, 30 days), the “Crystal form identification (XRPD)” value is “Partially converted to amorphous” and the Purity % was found to be 98.7%. In series [3] (high temperature of 60° C.), this compound displayed a Purity decrease of 4.2%. The Purity decrease in series [3] (light exposure) is recorded as 11%.
